Results from patent US6667387B1, “HCV core peptides” (priority 1992, dated 2003).
Ends that are not written are not given here.

Key:
[1] = system: antibodies in sera from HCV-seropositive donors; assay: ELISA with HCV antibody-positive sera (biotinylated peptides on streptavidin- or avidin-coated plates, unbiotinylated peptides coated directly); type: binding, human; conditions: for PEPTIDE ELISA (O.D.): Table 12, biotinylated 20-mers
How it was run: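 Read-out is OD at 450 nm after HRP goat anti-human Ig and TMB development, following 1 h at 37° C. with seropositive or negative sera diluted 1:100 (or 20-fold). Antigen was either unbiotinylated peptide adsorbed on plastic (pH 9.6 carbonate, 2–5 or 3 μg/ml) or biotinylated peptide at 1 μg/ml captured on streptavidin-coated wells, with casein blocking.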

[2] = ELISA with seronegative / negative control sera (specificity); type: binding, human
How it was run: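 Specificity readout is OD at 450 nm (HRP goat anti-human Ig, TMB/H2O2, sulfuric acid stop), with ≥0.250 counted positive. Seronegative donor sera (typically 1:100, 1 h, 37° C) were applied to casein-blocked wells coated with peptide directly or via streptavidin capture of biotinylated peptide.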

IIPDREVLYREFDEMEECSQ
optical density (450 nm) ([1]; Table 4F, serum 8315, 20-fold dilution): 2.672
optical density (450 nm) ([1]; Table 4F, serum 8316, 20-fold dilution): 0.367
optical density (450 nm) ([1]; Table 4F, serum 8317, 20-fold dilution): 1.634
optical density (450 nm) ([1]; Table 4F, serum 8318, 20-fold dilution): 2.431
optical density (450 nm) ([1]; Table 4F, serum 8320, 20-fold dilution): 0.896
optical density (450 nm) ([1]; Table 4F, serum 8321, 20-fold dilution): 0.457
optical density (450 nm) ([1]; Table 4F, serum 8326, 20-fold dilution): 2.540
optical density (450 nm) ([1]; Table 5, sample 8242 (positive), peptide concentration 0.01 micrograms per milliliter, listed as HCV peptide IX): 0.215
optical density (450 nm) ([1]; Table 5, sample 8242 (positive), peptide concentration 0.03 micrograms per milliliter, listed as HCV peptide IX): 0.496
optical density (450 nm) ([1]; Table 5, sample 8242 (positive), peptide concentration 0.1 micrograms per milliliter, listed as HCV peptide IX): 0.911
optical density (450 nm) ([1]; Table 5, sample 8242 (positive), peptide concentration 0.3 micrograms per milliliter, listed as HCV peptide IX): 0.795
optical density (450 nm) ([1]; Table 5, sample 8242 (positive), peptide concentration 1.0 micrograms per milliliter, listed as HCV peptide IX): 0.777
optical density (450 nm) ([1]; Table 5, sample 8242 (positive), peptide concentration 3.0 micrograms per milliliter, listed as HCV peptide IX): 0.791
optical density (450 nm) ([1]; Table 5, sample 8243 (positive), peptide concentration 0.01 micrograms per milliliter, listed as HCV peptide IX): 0.639
optical density (450 nm) ([1]; Table 5, sample 8243 (positive), peptide concentration 0.03 micrograms per milliliter, listed as HCV peptide IX): 1.421
optical density (450 nm) ([1]; Table 5, sample 8243 (positive), peptide concentration 0.1 micrograms per milliliter, listed as HCV peptide IX): 1.834
optical density (450 nm) ([1]; Table 5, sample 8243 (positive), peptide concentration 0.3 micrograms per milliliter, listed as HCV peptide IX): 1.892
optical density (450 nm) ([1]; Table 5, sample 8243 (positive), peptide concentration 1.0 micrograms per milliliter, listed as HCV peptide IX): 1.953
optical density (450 nm) ([1]; Table 5, sample 8243 (positive), peptide concentration 3.0 micrograms per milliliter, listed as HCV peptide IX): 1.959
optical density (450 nm) ([1]; Table 5, sample 8320 (positive), peptide concentration 0.01 micrograms per milliliter, listed as HCV peptide IX): 0.461
optical density (450 nm) ([1]; Table 5, sample 8320 (positive), peptide concentration 0.03 micrograms per milliliter, listed as HCV peptide IX): 1.007
optical density (450 nm) ([1]; Table 5, sample 8320 (positive), peptide concentration 0.1 micrograms per milliliter, listed as HCV peptide IX): 1.244
optical density (450 nm) ([1]; Table 5, sample 8320 (positive), peptide concentration 0.3 micrograms per milliliter, listed as HCV peptide IX): 1.798
optical density (450 nm) ([1]; Table 5, sample 8320 (positive), peptide concentration 1.0 micrograms per milliliter, listed as HCV peptide IX): 0.802
optical density (450 nm) ([1]; Table 5, sample 8320 (positive), peptide concentration 3.0 micrograms per milliliter, listed as HCV peptide IX): 1.779
optical density (450 nm) ([1]; Table 5, sample 8326 (positive), peptide concentration 0.01 micrograms per milliliter, listed as HCV peptide IX): 1.812
optical density (450 nm) ([1]; Table 5, sample 8326 (positive), peptide concentration 0.03 micrograms per milliliter, listed as HCV peptide IX): 2.193
optical density (450 nm) ([1]; Table 5, sample 8326 (positive), peptide concentration 0.1 micrograms per milliliter, listed as HCV peptide IX): 2.284
optical density (450 nm) ([1]; Table 5, sample 8326 (positive), peptide concentration 0.3 micrograms per milliliter, listed as HCV peptide IX): 2.271
optical density (450 nm) ([1]; Table 5, sample 8326 (positive), peptide concentration 1.0 micrograms per milliliter, listed as HCV peptide IX): 2.271
optical density (450 nm) ([1]; Table 5, sample 8326 (positive), peptide concentration 3.0 micrograms per milliliter, listed as HCV peptide IX): 2.284
optical density (450 nm) ([1]; Table 8, serum 8243 (HCV), Avidin): 1.213
optical density (450 nm) ([1]; Table 8, serum 8247 (HCV), Avidin): 0.756
optical density (450 nm) ([1]; Table 8, serum 8248 (HCV), Avidin): 0.047
optical density (450 nm) ([1]; Table 8, serum 8269 (HCV), Avidin): 0.051
optical density (450 nm) ([1]; Table 8, serum 8273 (HCV), Avidin): 0.053
optical density (450 nm) ([1]; Table 8, serum 8278 (HCV), Avidin): 0.074
optical density (450 nm) ([1]; Table 8, serum 8285 (HCV), Avidin): 0.270
optical density (450 nm) ([1]; Table 8, serum 8290 (HCV), Avidin): 0.048
optical density (450 nm) ([1]; Table 8, serum 8291 (HCV), Avidin): 0.052
PEPTIDE ELISA (O.D.) ([1]; serum 0843): 2.206
PEPTIDE ELISA (O.D.) ([1]; serum 8240): 0.142
PEPTIDE ELISA (O.D.) ([1]; serum 8241): 0.421
PEPTIDE ELISA (O.D.) ([1]; serum 8242): 2.114
PEPTIDE ELISA (O.D.) ([1]; serum 8332): 0.392
PEPTIDE ELISA (O.D.) ([1]; serum 8339): 2.497
PEPTIDE ELISA (O.D.) ([1]; serum 8350): 1.779
PEPTIDE ELISA (O.D.) ([1]; serum 8377): 2.360
PEPTIDE ELISA (O.D.) ([1]; serum 8378): 1.859
PEPTIDE ELISA (O.D.) ([1]; serum 8388): 2.300
antibody binding to the 20-mers ([1]; serum 8241): very strong
optical density (450 nm) ([2]; Table 4F, negative serum): 0.005
optical density (450 nm) ([2]; Table 5, sample 1747 (negative), peptide concentration 0.01 micrograms per milliliter, listed as HCV peptide IX): 0.043
optical density (450 nm) ([2]; Table 5, sample 1747 (negative), peptide concentration 0.03 micrograms per milliliter, listed as HCV peptide IX): 0.044
optical density (450 nm) ([2]; Table 5, sample 1747 (negative), peptide concentration 0.1 micrograms per milliliter, listed as HCV peptide IX): 0.042
optical density (450 nm) ([2]; Table 5, sample 1747 (negative), peptide concentration 0.3 micrograms per milliliter, listed as HCV peptide IX): 0.046
optical density (450 nm) ([2]; Table 5, sample 1747 (negative), peptide concentration 1.0 micrograms per milliliter, listed as HCV peptide IX): 0.049
optical density (450 nm) ([2]; Table 5, sample 1747 (negative), peptide concentration 3.0 micrograms per milliliter, listed as HCV peptide IX): 0.051
optical density (450 nm) ([2]; Table 5, sample 1781 (negative), peptide concentration 0.01 micrograms per milliliter, listed as HCV peptide IX): 0.049
optical density (450 nm) ([2]; Table 5, sample 1781 (negative), peptide concentration 0.03 micrograms per milliliter, listed as HCV peptide IX): 0.048
optical density (450 nm) ([2]; Table 5, sample 1781 (negative), peptide concentration 0.1 micrograms per milliliter, listed as HCV peptide IX): 0.047
optical density (450 nm) ([2]; Table 5, sample 1781 (negative), peptide concentration 0.3 micrograms per milliliter): 0.051
optical density (450 nm) ([2]; Table 5, sample 1781 (negative), peptide concentration 1.0 micrograms per milliliter, listed as HCV peptide IX): 0.051
optical density (450 nm) ([2]; Table 5, sample 1781 (negative), peptide concentration 3.0 micrograms per milliliter): 0.053
optical density (450 nm) ([2]; Table 8, serum 1782 (blood donor), Avidin): 0.062
optical density (450 nm) ([2]; Table 8, serum 1784 (blood donor), Avidin): 0.050
optical density (450 nm) ([2]; Table 8, serum 1785 (blood donor), Avidin): 0.050
optical density (450 nm) ([2]; Table 8, serum 1794 (blood donor), Avidin): 0.098
